Values of other authors, collected in patent US20100113581A1, “COMBINATION THERAPIES FOR THE TREATMENT OF OBESITY” (priority 2008, published 2010).

What was measured:
[1] = cyclodextrin derivatives
[2] = published studies of weight loss medications

triacetyl-beta-cyclodextrin
solubility in water [1]: insoluble

CC(C)CC(N(C)C)C1(c2ccc(Cl)cc2)CCC1 (centres unmarked) [sibutramine]
weight loss of body weight for drug compared with placebo [2]: about 5%

CCN[C@@H](C)Cc1cccc(C(F)(F)F)c1 [dexfenfluramine]
weight loss of body weight for drug compared with placebo [2]: about 5%

G-2-beta-cyclodextrin
solubility in water [1]: 147 % (w/v)

CCCCCCCCCCC[C@@H](C[C@@H]1OC(=O)[C@H]1CCCCCC)OC(=O)[C@H](CC(C)C)NC=O [orlistat]
weight loss of body weight for drug compared with placebo [2]: about 5%
